Source: patent US20080280879A1, “SUBSTITUTED HETEROCYCLIC DERIVATIVES AND THEIR PHARMACEUTICAL USE AND COMPOSITIONS” (priority 2007, published 2008)
Values after ≈ are worked out from the molar mass of the structure shown.

How the values were obtained:
Assay type in all cases: cell-based, Staphylococcus aureus
[1] = system: Staph aureus 1095 MRSA; assay: MIC, microtiter broth dilution (CLSI M7-A7), Assay 1, Table 12 column A, no serum; settings: Assay 1, no serum; for MIC: Staphylococcus aureus, MRSA
Procedure: (§1) The assays described herein include a panel of bacterial isolates of Staphylococcus aureus. Assay 1 comprises the strains noted in Columns A through E, and Assay 2 comprises the strains noted in Columns F through H. The assays are performed in microtiter trays according to Methods for Dilution Antimicrobial Susceptibility Tests for Bacteria that Grow Aerobically; Approved Standard-7th edition (M7-A7) and interpreted according to the Performance Standards for Antimicrobial Susceptibility Testing; 16th Informational Supplement (M100-S16) published by Clinical Laboratory Standards Institute (CLSI). The antibacterial activity is presented in the form of a minimum inhibitory concentration (MIC) value in μg/ml format. The MIC value represents the lowest concentration of drug measured which prevented macroscopically visible growth under the conditions and specific doses tested. The compounds were initially dissolved in DMSO as 30 mM stocks and diluted accordingly to adjust to a concentration of 10 mg/ml or the compounds were dissolved in DMSO at a concentration of 10 mg/ml. For assessment of activity in the presence of human serum, S. aureus 1146 and S. aureus 1031 were inoculated into Mueller-Hinton Broth with 50% pooled inactivated human serum. In some cases, compounds were tested more than once in a particular assay. Where noted, the MIC value shown in Table 12 represents the geometric mean of the data from multiple runs.
(§2) It should be understood that the data in columns A-H represents MIC data in μg/ml and the notation “<=” means ‘less than or equal to’.

[2] = system: Staph aureus 1146; assay: MIC, microtiter broth dilution (CLSI M7-A7), Assay 1, Table 12 column B, no serum; settings: for MIC, column B: Staph aureus 1146, Assay 1, no serum; for MIC: Staphylococcus aureus, 1146, Staph aureus 1146, Assay 1, no serum
Procedure: as §1, §2

[3] = system: Staph aureus 2811; assay: MIC, microtiter broth dilution (CLSI M7-A7), Assay 1, Table 12 column D, no serum; settings: for MIC, column D: Staph aureus 2811, Assay 1, no serum; for MIC: Staphylococcus aureus, 2811, Staph aureus 2811, Assay 1, no serum
Procedure: as §1, §2

[4] = system: Staph aureus 1146; assay: MIC in Mueller-Hinton Broth with 50% pooled inactivated human serum, Assay 1, Table 12; settings: for MIC, column C: Staph aureus 1146, Assay 1, 50% human serum; for MIC: Staphylococcus aureus, 1146, Staph aureus 1146, Assay 1, 50% human serum, read-out: MIC, column C
Procedure: as §1, §2

[5] = system: Staph aureus 2812; assay: MIC, microtiter broth dilution (CLSI M7-A7), Assay 1, Table 12 column E, no serum; settings: for MIC, column E: Staph aureus 2812, Assay 1, no serum; for MIC: Staphylococcus aureus, 2812, Staph aureus 2812, Assay 1, no serum
Procedure: as §1, §2

| Compound | MIC, column A [1] | MIC, column B [2] | MIC, column D [3] | MIC, column C [4] [µg/mL] | MIC, column E [5] | MIC [1] [µg/mL] | MIC [2] [µg/mL] | MIC [3] [µg/mL] | MIC [4] [µg/mL] | MIC [5] [µg/mL] |
| --- | --- | --- | --- | --- | --- | --- | --- | --- | --- | --- |
| COc1ccc2ncc(F)c(CCCC3(C(=O)O)CCN(C4CC(c5c(F)cccc5F)C4)C3)c2c1 (stereo not shown) [Example 181, 1-[3-(2,6-difluorophenyl)cyclobutyl]-3-[3-(3-fluoro-6-methoxyquinolin-4-yl)propyl]pyrrolidine-3-carboxylic acid] | <0.0625 µg/mL | <0.0625 µg/mL | <0.0625 µg/mL | 16.0 (≈ 32.1 µM) | <0.0625 µg/mL | – | – | – | – | – |
| COc1ccc2nccc([C@@H](O)CC[C@@H]3CCN(C4CC(c5cccc(C#N)c5)C4)C[C@@H]3C(=O)O)c2c1 (stereo partly drawn) [Example 226, (3R,4R)-1-(3-(3-cyanophenyl)cyclobutyl)-4-((S)-3-hydroxy-3-(6-methoxyquinolin-4-yl)propyl)piperidine-3-carboxylic acid] | 16 µg/mL (≈ 32 µM) | 4 µg/mL (≈ 8.01 µM) | 4 µg/mL (≈ 8.01 µM) | 32 (≈ 64 µM) | 8 µg/mL (≈ 16 µM) | – | – | – | – | – |
| COc1ccc2ncc(Cl)c(C(O)CC[C@@H]3CCN(C4CC(c5ccccc5)C4)C[C@@H]3C(=O)O)c2c1 (stereo partly drawn) [Example 212, (3R,4R)-4-[3-(3-chloro-6-methoxyquinolin-4-yl)-3-hydroxypropyl]-1-(3-phenylcyclobutyl)piperidine-3-carboxylic acid] | <0.0625 µg/mL | <0.0625 µg/mL | <0.0625 µg/mL | 2.00 (≈ 3.93 µM) | <0.0625 µg/mL | – | – | – | – | – |
| COc1ccc2nccc([C@@H](O)CC[C@@H]3CCN(C4CC(c5c(F)cc(F)cc5F)C4)C[C@@H]3C(=O)O)c2c1 (stereo partly drawn) [Example 69, (3R,4R)-4-[(3S)-3-hydroxy-3-(6-methoxyquinolin-4-yl)propyl]-1-[3-(2,4,6-trifluorophenyl)cyclobutyl]piperidine-3-carboxylic acid] | – | – | – | – | – | 0.5 (≈ 0.946 µM) | 0.125 (≈ 0.236 µM) | 0.125 (≈ 0.236 µM) | 2 (≈ 3.78 µM) | 0.25 (≈ 0.473 µM) |
| COc1ccc2nccc([C@@H](O)CC[C@@H]3CCN(C4CC(C5CCCC5)C4)C[C@@H]3C(=O)O)c2c1 (stereo partly drawn) [Example 48, (3R,4R)-1-(3-cyclopentylcyclobutyl)-4-[(3S)-3-hydroxy-3-(6-methoxyquinolin-4-yl)propyl]piperidine-3-carboxylic acid] | 0.25 µg/mL (≈ 0.536 µM) | 0.125 µg/mL (≈ 0.268 µM) | 0.125 µg/mL (≈ 0.268 µM) | 1 (≈ 2.14 µM) | 0.125 µg/mL (≈ 0.268 µM) | – | – | – | – | – |
| COc1ccc2nccc(C(O)CC[C@@H]3CCN(C4CC(c5cccc(Cl)c5)C4)C[C@@H]3C(=O)O)c2c1 (stereo partly drawn) [Example 29, (3R,4R)-1-[3-(3-chlorophenyl)cyclobutyl]-4-[3-hydroxy-3-(6-methoxyquinolin-4-yl)propyl] piperidine-3-carboxylic acid] | – | – | – | – | – | 0.5 (≈ 0.982 µM) | 0.25 (≈ 0.491 µM) | 0.25 (≈ 0.491 µM) | 4 (≈ 7.86 µM) | 0.25 (≈ 0.491 µM) |
| COc1ccc2ncc(Cl)c(CCNC3(C(=O)O)CCCN(C4CC(c5cccc(C(F)(F)F)c5)C4)CC3)c2c1 (stereo not shown) [Example 157, 4-{[2-(3-chloro-6-methoxyquinolin-4-yl)ethyl]amino}-1-{3-[3-(trifluoromethyl)phenyl]cyclobutyl}azepane-4-carboxylic acid] | – | – | – | – | – | 4 (≈ 6.94 µM) | 1 (≈ 1.74 µM) | 1 (≈ 1.74 µM) | > 33 | 0.5 (≈ 0.868 µM) |
| COc1ccc2ncc(F)c(C(O)CC[C@@H]3CCN(C4CC(c5c(F)cccc5F)C4)C[C@@H]3C(=O)O)c2n1 (stereo partly drawn) [Example 182, (3R,4R)-1-[3-(2,6-difluorophenyl)cyclobutyl]-4-[3-(3-fluoro-6-methoxy-1,5-naphthyridin-4-yl)-3-hydroxypropyl]piperidine-3-carboxylic acid] | – | – | – | 1.00 (≈ 1.89 µM) | – | < 0.0625 | < 0.0625 | < 0.0625 | – | < 0.0625 |
| COc1ccc2nccc(C(O)CC[C@@H]3CCN(C4CC(Oc5ccccc5)C4)C[C@@H]3C(=O)O)c2c1 (stereo partly drawn) [Example 8, (3R,4R)-4-[3-hydroxy-3-(6-methoxyquinolin-4-yl)propyl]-1-(3-phenoxycyclobutyl)piperidine-3-carboxylic acid] | – | – | – | – | – | 0.25 (≈ 0.51 µM) | 0.25 (≈ 0.51 µM) | 0.125 (≈ 0.255 µM) | 8 (≈ 16.3 µM) | 0.25 (≈ 0.51 µM) |
| O=C(O)[C@H]1CN(C2CC(c3cc(F)ccc3F)C2)CC[C@H]1CCC(O)c1c(F)cnc2ccc(O)nc12 (mixture of isomers) [Example 206, (3R,4R)-1-[3-(2,5-difluorophenyl)cyclobutyl]-4-[3-(3-fluoro-6-hydroxy-1,5-naphthyridin-4-yl)-3-hydroxypropyl]piperidine-3-carboxylic acid] | – | – | – | – | – | 4 | 2 | 2 | 16 | 4 |
| COc1ccc2nccc(C(O)CC[C@@H]3CCN(C4CC(c5ccccc5)C4)C[C@@H]3C(N)=O)c2c1 (stereo partly shown) [Example 144] | <=.0625 μg/ml | <=.0625 μg/ml | <=.0625 μg/ml | 0.25 (≈ 0.528 µM) | <=.0625 μg/ml | – | – | – | – | – |
| COc1ccc2nccc(C(O)CC[C@@H]3CCN(C4CC(Cc5cc(F)ccc5F)C4)C[C@@H]3C(=O)O)c2c1 (stereo partly drawn) [Example 202, (3R,4R)-1-[3-(2,5-difluorobenzyl)cyclobutyl]-4-[3-hydroxy-3-(6-methoxyquinolin-4-yl)propyl]piperidine-3-carboxylic acid] | – | – | – | – | – | 8 (≈ 15.2 µM) | 2 (≈ 3.81 µM) | 2 (≈ 3.81 µM) | 64 (≈ 122 µM) | 4 (≈ 7.62 µM) |
| COc1ccc2ncc(F)c([C@@H](O)CNC3(C(=O)O)CCCN(C4CC(c5ccccc5)C4)CC3)c2c1 (single isomer, unassigned) [Example 150] | 4 µg/mL (≈ 7.88 µM) | 2 µg/mL (≈ 3.94 µM) | 2 µg/mL (≈ 3.94 µM) | 4 (≈ 7.88 µM) | 2 µg/mL (≈ 3.94 µM) | – | – | – | – | – |
| COc1ccc2nccc(C(O)CC[C@@H]3CCN(C4CC(c5ccccc5)C4)CC3(C)C(=O)O)c2c1 (stereo partly drawn) [Example 13, (4R)-4-[3-hydroxy-3-(6-methoxyquinolin-4-yl)propyl]-3-methyl-1-(3-phenylcyclobutyl) piperidine-3-carboxylic acid] | 4 µg/mL (≈ 8.19 µM) | 4 µg/mL (≈ 8.19 µM) | 2 µg/mL (≈ 4.09 µM) | 32 (≈ 65.5 µM) | 2 µg/mL (≈ 4.09 µM) | – | – | – | – | – |
| COc1ccc2nccc([C@@H](O)CC[C@@H]3CCN(C4CC(c5c(F)ccc(F)c5F)C4)C[C@@H]3C(=O)O)c2c1 (stereo partly drawn) [Example 195, (3R,4R)-4-[(3S)-3-hydroxy-3-(6-methoxyquinolin-4-yl)propyl]-1-[3-(2,3,6-trifluorophenyl)cyclobutyl] piperidine-3-carboxylic acid] | – | – | – | – | – | < 0.0625 | < 0.0625 | < 0.0625 | 1 (≈ 1.89 µM) | < 0.0625 |
| COc1ccc2nccc(C(O)CC[C@@H]3CCN(C4CN(Cc5ccccn5)C4)C[C@@H]3C(=O)O)c2c1 (stereo partly drawn) [Example 127, (3R,4R)-4-(3-hydroxy-3-(6-methoxyquinolin-4-yl)propyl)-1-(1-(pyridine-2-ylmethyl)azetidin-3-yl)piperdine-3-carboxylic acid] | >64 µg/mL | >64 µg/mL | >64 µg/mL | >64 | >64 µg/mL | – | – | – | – | – |
| COc1ccc2ncc(Cl)c(C(O)CCC3(C(=O)O)CCN(C4CC(c5ccccc5)C4)C3)c2c1 (stereo not shown) [Example 175, 3-[3-(3-chloro-6-methoxyquinolin-4-yl)-3-hydroxypropyl]-1-(3-phenylcyclobutyl)pyrrolidine-3-carboxylic acid] | – | – | – | – | – | 0.5 (≈ 1.01 µM) | < 0.0625 | < 0.0625 | 4 (≈ 8.08 µM) | < 0.0625 |
